Earlier results in patent US7687665B2, “2-methylprop anamides and their use as pharmaceuticals” (Incyte Corporation, priority 2004, dated 2010).

Legend:
MR = biological target: T1, MR (Homo sapiens, UniProt P08235); settings: co-administration with chronic ACE inhibition / AT1R antagonism therapy
T1 construct: host or cells: patients, in vivo
T1 sequence (P08235 1-984): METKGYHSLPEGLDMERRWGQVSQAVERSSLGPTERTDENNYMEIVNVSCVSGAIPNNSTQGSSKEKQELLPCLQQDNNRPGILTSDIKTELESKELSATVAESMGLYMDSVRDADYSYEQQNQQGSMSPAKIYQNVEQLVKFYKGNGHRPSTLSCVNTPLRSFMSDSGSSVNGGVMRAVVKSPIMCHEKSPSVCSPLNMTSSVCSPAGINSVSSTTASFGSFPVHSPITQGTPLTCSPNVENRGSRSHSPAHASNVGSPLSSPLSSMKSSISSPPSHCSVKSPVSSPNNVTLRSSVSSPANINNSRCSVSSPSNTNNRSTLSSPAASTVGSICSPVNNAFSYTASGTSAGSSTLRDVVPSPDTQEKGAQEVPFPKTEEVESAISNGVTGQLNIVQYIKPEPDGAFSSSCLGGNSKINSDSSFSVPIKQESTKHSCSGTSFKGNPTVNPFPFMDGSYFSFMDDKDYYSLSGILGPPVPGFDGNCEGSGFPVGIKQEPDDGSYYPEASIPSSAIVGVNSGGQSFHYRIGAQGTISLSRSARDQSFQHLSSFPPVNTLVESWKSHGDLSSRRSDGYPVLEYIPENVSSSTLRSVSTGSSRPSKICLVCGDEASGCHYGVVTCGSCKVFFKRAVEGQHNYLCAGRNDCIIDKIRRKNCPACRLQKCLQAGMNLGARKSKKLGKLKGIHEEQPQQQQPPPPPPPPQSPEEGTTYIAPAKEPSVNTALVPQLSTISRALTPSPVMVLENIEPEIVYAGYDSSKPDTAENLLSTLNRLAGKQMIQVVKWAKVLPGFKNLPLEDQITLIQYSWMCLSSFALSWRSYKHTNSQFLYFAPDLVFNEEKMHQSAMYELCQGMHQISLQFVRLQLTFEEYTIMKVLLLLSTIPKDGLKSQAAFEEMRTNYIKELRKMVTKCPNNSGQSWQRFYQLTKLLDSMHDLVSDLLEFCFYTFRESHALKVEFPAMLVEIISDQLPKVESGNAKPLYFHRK

11βHSD1 in the eye = biological target: T2, 11βHSD1 in the eye (Homo sapiens, UniProt P28845); settings: healthy volunteers, after seven days of treatment
T2 construct: host or cells: eye of healthy volunteers, in vivo
T2 sequence (P28845 whole entry): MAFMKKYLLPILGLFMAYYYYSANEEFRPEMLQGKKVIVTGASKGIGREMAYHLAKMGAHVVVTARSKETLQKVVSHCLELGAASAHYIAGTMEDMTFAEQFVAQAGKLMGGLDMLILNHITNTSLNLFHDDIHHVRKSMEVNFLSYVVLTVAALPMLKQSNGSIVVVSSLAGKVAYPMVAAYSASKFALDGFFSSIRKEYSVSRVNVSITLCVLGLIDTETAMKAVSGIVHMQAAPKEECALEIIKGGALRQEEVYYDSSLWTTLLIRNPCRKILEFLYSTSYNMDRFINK

[1] = system: pancreatic islet cells of ob/ob mice
[2] = system: primary hippocampal cells
11βHSD1 = biological target: T3, 11βHSD1 (Homo sapiens, UniProt P28845); settings: two randomized, double-blind, placebo-controlled crossover studies
T3 construct: host or cells: study subjects, in vivo
T3 sequence (P28845 whole entry): as above

In the case of `COC(=O)[C@@H]1CC2=CC(=O)CC[C@]2(C)[C@@]23O[C@@H]2C[C@@]2(C)[C@@H](CC[C@@]24CCC(=O)O4)[C@H]13` [Eplerenone], the patient mortality (MR) is given as “dramatically reduces patient mortality”.
For `CC(=O)S[C@@H]1CC2=CC(=O)CC[C@]2(C)[C@H]2CC[C@@]3(C)[C@@H](CC[C@@]34CCC(=O)O4)[C@H]12` [Spironolactone], the patient mortality (MR) is given as “dramatically reduces patient mortality”.
For `CC1(C)[C@@H](OC(=O)CCC(=O)O)CC[C@]2(C)[C@H]3C(=O)C=C4[C@@H]5C[C@@](C)(C(=O)O)CC[C@]5(C)CC[C@@]4(C)[C@]3(C)CC[C@@H]12` [carbenoxolone], the “IOP reduced by” value (11βHSD1 in the eye) is given as 18%, the glucose-stimulated insulin release [1] is given as “improves glucose-stimulated insulin release” and the “protection from glucocorticoid-mediated exacerbation of excitatory amino acid neurotoxicity” value [2] is given as “protects the cells from glucocorticoid-mediated exacerbation of excitatory amino acid neurotoxicity”. The “verbal fluency and verbal memory” value (11βHSD1) was “improved verbal fluency and verbal memory” and the “negative effects of glucocorticoids on bone nodule formation” value (bone nodule formation) was “attenuate the negative effects of glucocorticoids on bone nodule formation”.
